Data reported in US20100056441A1, “Method for Inhibiting Angiogenesis” (priority 2006, published 2010).
Non-standard residues stand in square brackets, D forms with d. Residues, ends and D or L forms follow the SMILES beside them.

Columns and labels:
mouse HCC cells = test: Apoptosis in mouse liver tumors (H&E, TUNEL, activated caspase 3); assay type: in vivo; conditions: treated tumor-bearing mice
Description: Furthermore, these apoptotic tumor cells were not apparent in FoxM1 deficient livers in dsRNA (CKO) Mx-Cre Foxm1−/− mice (FIG. 3E-3G).
(§1) To measure apoptosis in mouse livers we used the Terminal Deoxynucleotidyl Transferase-mediated dUTP-biotin Nick End Labeling (TUNEL) assay on liver sections using the ApoTag Fluorescein in situ apoptosis detection kit from Intergen (Purchase, N.Y.) according to the manufacturer's recommendations. The mean number (±SD) of TUNEL- or DAPI-positive hepatocyte nuclei was calculated per 1000 cells or 200× field by counting the number of positive hepatocyte nuclei using five different 200× fields of liver tumor sections from male mice at the indicated times of DEN/PB exposure.

[1] = system: HCC cells of ARF -/- Rosa 26 FoxM1b TG mice; test: Apoptosis of HCC in ARF -/- Rosa26 FoxM1b TG mice (H&E, TUNEL); assay type: in vivo, mouse
Protocol: In order to determine the effective concentration of dose of the ARF peptide for efficient liver delivery, mice were subjected to IP injection of either 0.1, 1, 5 or 10 mg/Kg body weight of TMR fluorescently tagged WT ARF 26-44 peptide, and were sacrificed 24 hours later, after which their livers were dissected, formalin fixed and paraffin embedded. Liver sections were treated with Xylene to remove paraffin wax and then examined by fluorescent microscopy for red peptide fluorescence. This dose response curve determined that IP injection of either equal or greater than 5 mg/Kg body weight of TMR-fluorescently labeled WT ARF 26-44 peptide was detectable in cytoplasm and nucleolus of hepatocytes and in hepatic mesenchymal cells at 24 hours after injection (FIG. 4G). […]
as §1, with “exposure. […]” for “exposure.”

FoxM1b = target: T1, FoxM1b (Homo sapiens, UniProt Q08050); conditions: cited from earlier work
T1 sequence (Q08050 1-748 isoform Q08050-2): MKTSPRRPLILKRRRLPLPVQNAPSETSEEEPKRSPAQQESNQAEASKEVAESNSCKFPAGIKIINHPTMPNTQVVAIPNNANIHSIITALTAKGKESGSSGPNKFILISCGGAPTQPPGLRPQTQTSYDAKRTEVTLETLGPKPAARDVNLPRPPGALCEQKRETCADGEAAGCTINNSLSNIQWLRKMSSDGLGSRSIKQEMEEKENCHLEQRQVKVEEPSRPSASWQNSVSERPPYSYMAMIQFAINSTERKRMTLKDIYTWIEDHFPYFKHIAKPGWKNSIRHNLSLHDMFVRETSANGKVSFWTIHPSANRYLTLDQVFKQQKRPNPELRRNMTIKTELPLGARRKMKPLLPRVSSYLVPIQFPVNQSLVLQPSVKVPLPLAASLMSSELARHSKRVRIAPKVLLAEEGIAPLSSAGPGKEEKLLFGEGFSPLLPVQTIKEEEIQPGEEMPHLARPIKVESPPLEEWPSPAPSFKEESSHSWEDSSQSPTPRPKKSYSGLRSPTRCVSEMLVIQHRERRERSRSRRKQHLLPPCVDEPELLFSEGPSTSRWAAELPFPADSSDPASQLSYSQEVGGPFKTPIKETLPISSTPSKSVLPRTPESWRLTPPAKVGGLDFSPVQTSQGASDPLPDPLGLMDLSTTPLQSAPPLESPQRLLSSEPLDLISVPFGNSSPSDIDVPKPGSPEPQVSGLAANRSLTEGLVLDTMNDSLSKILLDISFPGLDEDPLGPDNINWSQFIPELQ

Compound	activated caspase 3 staining in adjacent normal liver tissue (mouse HCC cells)	red staining cells in surrounding normal liver tissue (H&E) (mouse HCC cells)	TUNEL-positive cells in adjacent normal liver tissue [1]	inhibition of FoxM1B activity (FoxM1b)
CC(C)C[C@H](NC(=O)[C@H](C)NC(=O)[C@H](CS)NC(=O)[C@H](CO)NC(=O)[C@H](C)NC(=O)[C@@H](NC(=O)[C@H](CCCNC(=N)N)NC(=O)[C@@H]1CCCN1C(=O)[C@H](CCCNC(=N)N)NC(=O)[C@H](CCCNC(=N)N)NC(=O)[C@H](CO)NC(=O)[C@H](CCCNC(=N)N)NC(=O)[C@@H](NC(=O)[C@H](Cc1ccccc1)NC(=O)[C@H](CCCCN)NC(=O)[C@@H](CCCNC(=N)N)NC(=O)[C@@H](CCCNC(=N)N)NC(=O)[C@@H](CCCNC(=N)N)NC(=O)[C@@H](CCCNC(=N)N)NC(=O)[C@@H](CCCNC(=N)N)NC(=O)[C@@H](CCCNC(=N)N)NC(=O)[C@@H](CCCNC(=N)N)NC(=O)[C@@H](CCCNC(=N)N)NC(=O)[C@H](N)CCCNC(=N)N)C(C)C)[C@@H](C)O)C(=O)N[C@@H](C)C(=O)N[C@@H](Cc1ccccc1)C(=O)N[C@H](C(=O)N[C@@H](CC(N)=O)C(=O)O)C(C)C [WT ARF 26-44 peptide, rrrrrrrrrKFVRSRRPRTASCALAFVN] (H-[dR][dR][dR][dR][dR][dR][dR][dR][dR]KFVRSRRPRTASCALAFVN-OH; N-terminus and C-terminus assumed)	no pro-apoptotic staining in the adjacent normal liver tissue	neither in the surrounding normal liver tissue	not detected in adjacent normal liver tissue	
KFVRSRRPRTASCALAFVN (listed as Homo sapiens) [p19ARF26-44 peptide, amino acids 26-44 of the p19ARF tumor suppressor protein]				sufficient in inhibiting FoxM1B activity
